Values quoted from earlier work in patent US20060105962A1, “TONIC TO MAINTAIN INTESTINAL FLORA” (priority 2004, published 2006).

System: rats
Details: exposure over a thirteen week period, up to 100% safety

O=Cc1ccco1 [furfural compounds, furfural]
exposure to furfural compounds demonstrated as up to 100% safe: 53.0 mg/kg body weight
